# Reference: patent publication US20190008810A1, “METHOD FOR PREVENTION, TREATMENT AND ALLEVIATION OF INFECTIOUS DISEASES AND DISORDERS” (REPLICON HEALTH OY, priority 2016, published 2019)
# How the values were obtained:
# [1] = test system: cortisol, TSH, T4; assay: Blood cortisol, TSH and T4 in healthy human volunteers, Example 5a; assay type: in vivo
# Procedure: Blood levels of cortisol, thyroid stimulating hormone (TSH) and thyroxin, i.e. thyroid hormone T4 (T4) from standard EDTA blood sample were measured. 0-control and 2 day follow up measurement were conducted at approximately 08.55 am and the same day, 1.5 hour follow up, at 10:25 am. All measurements were conducted in “half fasting” state, i.e. half of the normal breakfast eaten 1.5 hours before the collection of the blood sample, and the other “half” immediately after 0-control measurement. First measurement without the DGA Activation served as the 0-control for both follow up measurements with the DGA Activation. First “DGA measurement” was conducted after 1.5 hours from 0-control (“fast effect”) and the second after 2 days (“persistent effect”). […] Last dose was 300 mg of D-glyceric acid mixed into water (or 430 mg of D-glyceric acid calcium salt dehydrate mixed into water), and otherwise the daily dose was 2*225 mg D-glyceric acid calcium salt dehydrate mixed into water. Male volunteers S1 and S9 weigh 75 kg and 80 kg respectfully.
# [2] = test system: ethanol-dosed gastric cells; details: in vitro study, Habe et al.; cited from earlier work
# [3] = test system: acute bowels inflammation caused by diverticulitis; assay: Healing from acute inflammatory bowels disease (diverticulitis) in S4, Example 1e; assay type: in vivo, human
# Description: In Example 1e the resolution of gastrointestinal tract infection in another subject 4 (S4) has been shown. Like in S1 also in S4 the HO-1 pathway is clearly activated by the DGA Activation. This is indirectly shown by the clear reduction of blood bilirubin in Table 1e. […] During last few years these seldom but acute inflammations in the gastrointestinal tract have been mostly in the colon and caused by inflammation in Colonic diverticula. […] The only functioning therapy for inflammatory bowels disease has been the administration of strong intravenous antibiotics.
# Like other tests with unhealthy humans also this test was done because there were no other efficient substances available. When symptoms of increased bowels inflammation/diverticulosis started S4 was on holiday abroad with very difficult access to any specialized doctor not to mention any hospital. […] Simultaneously with inflammatory symptoms and maybe partially enhancing them S4 experienced constipation.
# By Saturday night on the 4th day of gradually increasing acute inflammation in the colon, S4 decided to test whether DGA Activation in combination with paracetamol would assist in resolving this already rather serious inflammation. There were no other available options at that moment. This decision was also supported by confidential information received on positive results with S1 (Examples 1b and 1c).
# Saturday night at 0737 pm first 260 mg of D-glyceric acid calcium salt mixed into water was taken with 2×500 mg of paracetamol. Another additional 260 mg dose of DGAcs mixed into water was taken the same night at 1020 pm. Altogether the starting dose was 9 mg/kg i.e. relatively high. High initial dose was chosen because of high level of inflammation.
# [4] = test system: HO-1, GRHPR, PGC-1a and NRF1 pathway genes; assay: Gene expression in peripheral leukocytes after 4.5-day administration, Example 5b; assay type: in vivo, human
# Procedure: FIG. 13a: In this 4.5-day experiment samples of peripheral leukocytes were collected from standard blood sample of S1 and S9 in fasting condition (0 h), and 1 hour (1 h) after taking 75 grams of glucose (Glutole, Biofile Pharma, 330 ml) for glucose tolerance test. After the collection of the blood samples the leukocytes were immediately separated, and after separation immediately lysed by stop solution and stored in freezer in line with the instructions by the service provider.
# Gene expression was measured from those peripheral leukocyte (=white blood cells). Additionally, basal (=0-Control) gene expression of all genes was later measured for S1. This was done using a different gene expression method for genome wide sequencing.
# The doses used were 250 mg taken twice a day, in the morning and before going to bed. The last DGA dose was double in size (some 8 mg/kg), and it was taken in the same morning as the collection of blood samples. Relatively high dose and 2.5 hours to measurement was chosen to see clearer dose response in gene expression from peripheral leukocytes.
# In the FIG. 13a it is shown that UTPfsAEM gene expressions are activated markedly in peripheral leukocytes after 4.5 day DGA Activation compared to 0-control. The analysis of selected genes was conducted both in fasting conditions and 1 h after glucose intake (“fed” in FIG. 13a)) and in acute dosing, i.e. only 2.5 hours from last DGA dose.
# [5] = test system: bacterial and/or virus infection of respiratory tract; assay: Healing from more severe respiratory tract infection in S1, Example 1d; assay type: in vivo, human
# Description: Clear symptoms of bacterial and/or virus infection in S1 had started 7 days earlier. Original cause of the disease can also be acquired earlier, i.e. it can have been some hiding pathogen like tuberculosis bacteria that exploits tempting opportunities to attack the body when its defenses are weakened by some physical and/or mental stress (in this case stress could have been also positive stress from overly active days). […] On Friday, they were in an activity theme park with the family and next day, on Saturday they drove for 2 hours to a birthday party lasting to Sunday morning hours, and finally on Sunday visited museum that required 500 km of extra driving there and back. Next day, i.e. on Monday morning, the initiation of infectious condition was felt very clearly.
# On Friday afternoon, fever had risen to 37.40 Celsius that is relatively high fever for S1 whose normal temperature is 36.60 Celsius (C) in rest during the day. Fever remained at 37.40 C until the night. During Saturday, the disease and related fever continued. On Sunday morning, temperature was slightly elevated (36.58 C) compared to the normal morning temperature (36.2-36.4 C). Otherwise the general condition was good on this Sunday morning but during the day fever again rose to 37.15 C by the afternoon and the symptoms in respiratory tract got more severe, resembling intensifying bronchitis or similar inflammatory condition.
# By Sunday afternoon it started to seem evident that the immune system of S1 (even assisted by almost perfect rest for 3 days already) would not be able to provide a fast resolution to the potentially serious infectious condition. The Double and the Local Enforcements should be started as soon as possible. (Note: acute fever responses, presented in FIG. 5 and FIG. 11 for S1 have been observed from following administrations of D-glyceric acid in water and calcium salt dehydrate.)
# At 12:41 S1 took 2×250 mg of D-glyceric acid calcium salt mixed into water to initiate the DGA Activation. At 0715 pm S1 took 2×180 mg of D-glyceric acid calcium salt mixed into water to keep the DGA Activation alive.
smiles,measurement,setting,value
"O=C(O)[C@H](O)CO [DGA, D-glyceric acid]","TSH decline, fast effect",[1]; 1.5 hours,−24%
same,"decline of blood cortisol, fast effect","[1]; 1.5 hours after dose, both S1 and S9",more than 22%
same,"T4, average change from 0-control",[1]; S1 and S9,less than 1%
same,decrease in blood cortisol,[1]; S1 and S9,20-40%
same,TSH decline,[1]; after 2 days,−13%
same,viability of ethanol-dosed gastric cells,[2],can increase viability of ethanol-dosed gastric cells
same,time needed to turn the inflammatory process clearly down,[3]; S4,~36 h
same,defecation,"[3]; S4, Sunday 0910 am, morning after 2×260 mg DGAcs with 2×500 mg paracetamol",could defecate (almost normally) for the first time in 3 days
same,pains in bowels,"[3]; S4, Wednesday morning, after 240 mg twice a day",All the pains in bowels had disappeared
same,GRHPR gene expression,"[4]; fasting and fed, after 4.5 days",upregulated very significantly
same,HO-1 gene expression,"[4]; fasting and fed, after 4.5 days, 2.5 hours from last dose",upregulated very significantly
same,genes related to PGC-1a and NRF1 pathways,"[4]; fasting, after 4.5 days vs 0-control",activated statistically very significantly
same,increase of HO-1 expression,[4]; peripheral leukocytes in vivo,more than 100%
same,"body temperature, highest during workday","[5]; S1, Monday",36.87 C
same,body temperature,"[5]; S1, Monday 0630 am",36.38 C
same,body temperature,"[5]; S1, Monday 0900 pm",36.71 C
same,body temperature,"[5]; S1, Monday 1036 pm",36.68 C
same,body temperature,"[5]; S1, Sunday 07:10 pm, before second dose",36.60 C
same,body temperature,"[5]; S1, Sunday 0648 pm after 2×250 mg at 12:41, 37.15 C before",36.58 C
same,body temperature,"[5]; S1, Sunday 0652 pm",36.52 C
same,body temperature,"[5]; S1, Sunday 1015 pm",36.60 C
same,body temperature,"[5]; S1, Sunday 1035 pm",36.61 C
